Laboratory results taken from PubChem BioAssay AID1035470 (Broad Institute, 2014).
Inconclusive results are not listed. Calls of active or inactive are those of the source.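 How the source made its calls: active means compound lowering the normal-ribosome reporter at least twice as much as the humanized-ribosome reporter, growth loss under a set limit; inconclusive means no clear call, values can overlap the other calls; inactive means the rest.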

System: E. coli WT-GFP vs G2058-humanized RFP, fluorescence, 24 h
Assay: E. coli strain growth, wild-type against G2058 humanized RFP mutant – G2058 mutant RFP vs wild-type GFP, cherry-pick, two tests, dose response (AID 1035470)
[1] = E. coli WT-GFP vs G2058-humanized RFP mixed culture, total growth OD600, 24 h
[2] = measured here: G2058 humanized mutant RFP growth

| Compound | AC50 [1] [µM] | AC50 | AC50 [2] [µM] |
| --- | --- | --- | --- |
| C[C@@H]1CCCCO[C@@H](CN(C)C)[C@H](C)CN([C@@H](C)CO)C(=O)c2cc(NC(=O)Nc3cccc4ccccc34)ccc2O1 | > 100 |  |  |
| Cc1ccccc1NS(=O)(=O)c1cc(C(=O)NCCC2=CCCCC2)ccc1C |  | > 100 µM (inactive) |  |
| Nc1ccccc1C#CC(=O)c1ccccc1 | 49 |  |  |
| COC(=O)C1CCN(C(=O)c2ccc(OC)c(S(=O)(=O)N3CCCc4ccccc43)c2)CC1 |  | > 100 µM (inactive) |  |
| CCCN(CC(=O)Nc1ccccc1C)C(=O)c1cccc(S(=O)(=O)N2CCc3ccccc3C2)c1 | > 100 | > 100 µM (inactive) |  |
| COc1cccc(NC(=O)COC(=O)Cc2ccccc2[N+](=O)[O-])c1 | > 100 | > 100 µM (inactive) |  |
| Cc1cccc(NC(=O)c2nc(S(=O)(=O)Cc3ccccc3)ncc2Cl)c1 | > 100 |  |  |
| CCOCCCNC(=O)C(NC(=O)c1ccccc1O)c1ccc(C)cc1 (stereo not drawn) | > 100 |  |  |
| CCN(C(=O)CSc1cc(C)c2ccc(OC)cc2n1)C1CCS(=O)(=O)C1 (stereo not drawn) |  | > 100 µM (inactive) | 3.93 |
| Cc1nn(CC(=O)OCCOc2ccc(Br)cc2)c(C)c1[N+](=O)[O-] |  | > 100 µM (inactive) |  |
| COc1ccccc1CNC(=O)CN1C(=O)NC(c2ccccc2)(c2ccccc2)C1=O | > 100 | > 100 µM (inactive) |  |
| C=C(C)Cn1c(=O)c2c(nc3n2CC(C)CN3Cc2ccccc2)n(C)c1=O (stereo not drawn) |  | > 100 µM (inactive) |  |
| CC(=O)Nc1ccc(OCc2nnc(-c3ccccc3)o2)cc1 | > 100 | > 100 µM (inactive) |  |
| O=C(Nc1cccc(Cl)c1)N1C[C@@H]2[C@H](c3ccccc31)[C@H](CO)N2Cc1ccncc1 | > 100 | > 100 µM (inactive) |  |
| CC(C)n1nnnc1C1c2ccccc2C(=O)N1CCOc1ccccc1 (stereo not drawn) |  | > 100 µM (inactive) |  |
| COc1cccc(S(=O)(=O)N2CCCCN3[C@H](C2)[C@H](c2ccc(C#CC(C)C)cc2)[C@@H]3CO)c1 |  | > 100 µM (inactive) |  |
| COc1ccc(C#Cc2ccc([C@@H]3[C@@H](CO)N4CCCCN(C(=O)Nc5ccccc5F)C[C@H]34)cc2)cc1 |  | > 100 µM (inactive) |  |
| CC(CCc1ccccc1)NC(=O)CCC1CCCC1 (stereo not drawn) | > 100 |  |  |
| Cc1csc2c(N3CCC(C(=O)O)CC3)ncnc12 | > 100 | > 100 µM (inactive) | 50.4 |
| COc1ccc2c(c1)c1ncn(Cc3ccccn3)c(=O)c1n2C | > 100 | > 100 µM (inactive) |  |
| COc1ccc(-c2csc(NC(=O)c3ccccc3S(C)(=O)=O)n2)cc1 | > 100 | > 100 µM (inactive) | > 100 |

| Compound | AC50 [1] [µM] | AC50 | AC50 [2] [µM] |
| --- | --- | --- | --- |
| NC(=O)c1ccsc1NC(=O)COC(=O)CSc1ccc(Cl)cc1 | > 100 | > 100 µM (inactive) |  |
| CC1Cc2cc(S(=O)(=O)N3CCN(c4cccc(Cl)c4)CC3)ccc2N1C(=O)C1CC1 (stereo not drawn) | > 100 |  |  |
| COc1cc2c(cc1OC)CN(CC(=O)Nc1ccccc1SC)CC2 | > 100 | > 100 µM (inactive) | 47.2 |
| O=C1c2ccccc2C(c2nnnn2C2CCCCC2)N1CCc1ccc(O)cc1 (stereo not drawn) |  | > 100 µM (inactive) |  |
| CN(c1ccccc1)S(=O)(=O)c1cccc(NC(=O)CCNC(=O)c2ccc([N+](=O)[O-])cc2)c1 |  | > 100 µM (inactive) |  |
| CC1(c2ccc3ccccc3c2)NC(=O)N(CC(=O)N2CCN(c3ccccc3O)CC2)C1=O (stereo not drawn) | > 100 | > 100 µM (inactive) |  |
| Cc1cc(C)nc(SCc2cn3c(C)cccc3n2)n1 | > 100 | > 100 µM (inactive) |  |
| Cc1ccc(-c2c(=O)n(O)c3ccccc3[n+]2[O-])cc1 |  |  | > 100 |
| O=C(O)CC(CC(=O)Nc1ccc2ccccc2n1)c1ccccc1 (stereo not drawn) |  |  | > 100 |
| O=C(Nc1cccc(Cl)c1)N1C[C@H]2[C@@H](c3ccccc31)[C@H](CO)N2Cc1ccncc1 |  | > 100 µM (inactive) |  |
| O=C(Cn1cc(COc2c(F)c(F)cc(F)c2F)nn1)c1ccc(O)cc1 | > 100 | > 100 µM (inactive) |  |
| COC(C(=O)Nc1ccnn1C1CCN(Cc2ccc(Cl)s2)CC1)c1ccccc1 (stereo not drawn) |  | > 100 µM (inactive) | > 100 |
| CCCCn1c(=O)[nH]c(=O)c2c1nc(-c1ccccc1F)n2Cc1ccccc1 | > 100 | > 100 µM (inactive) |  |
| CC(C)CNC(=O)c1cccc(NC(=O)C(C)Oc2ccccc2)c1 (stereo not drawn) |  | > 100 µM (inactive) |  |
| O=C(O)c1ccc(Oc2ccc([N+](=O)[O-])cc2)c([N+](=O)[O-])c1 |  | > 100 µM (inactive) |  |
| COC(=O)CNC(=O)COC(=O)c1ccc(Cl)nc1 | > 100 |  |  |
| COC(=O)c1ccsc1NC(=O)c1cccc(OC)c1 |  |  | 5.79 |
| O=C(CN1CCN(S(=O)(=O)c2ccc(Cl)cc2)CC1)Nc1ccc2c(c1)CCC2 |  | > 100 µM (inactive) |  |
| O=C(Nc1cccc(Oc2ccc3c(c2)C(=O)NC3=O)c1)c1cccs1 |  | > 100 µM (inactive) |  |
| CN(C)S(=O)(=O)c1cccc(C(=O)Nc2ccc(C(=O)Nc3cccc(S(N)(=O)=O)c3)cc2)c1 |  | > 100 µM (inactive) |  |
| COc1ccc2nc(SCC(=O)Nc3ccccc3)[nH]c2c1 |  | > 100 µM (inactive) |  |

| Compound | AC50 [1] [µM] | AC50 | AC50 [2] [µM] |
| --- | --- | --- | --- |
| Cc1cccc(NC(=O)c2sc3nc(-c4ccccc4)cn3c2C)n1 | > 100 | > 100 µM (inactive) |  |
| CCOc1cccc(-c2cc(-c3n[nH]c(=S)n3CC)c3ccccc3n2)c1 |  | > 100 µM (inactive) |  |
| CCOc1ccc2nc(N(CCN(C)C)C(=O)c3ccc4ccccc4c3)sc2c1 |  | > 100 µM (inactive) |  |
| CCOC(=O)c1sc(NC(=O)CN2CCN(c3ccccc3)CC2)nc1C | > 100 | > 100 µM (inactive) |  |
| CN(Cc1nnc(-c2ccc(F)cc2)o1)c1ccccc1 | > 100 | > 100 µM (inactive) |  |
| O=C(NC1CCCC(C(F)(F)F)C1)c1ccc([N+](=O)[O-])o1 (stereo not drawn) |  | > 100 µM (inactive) |  |
| CCCC(=O)Nc1cccc(C(=O)Nc2ccccc2OCC)c1 |  | > 100 µM (inactive) |  |
| CCOC(=O)c1cnc2c(c(C)nn2C)c1Oc1ccc(OC)cc1 |  | > 100 µM (inactive) |  |
| Cc1c(C(=O)O)oc2ccc(S(=O)(=O)NC3CCCCCCC3)cc12 |  | > 100 µM (inactive) |  |
| Cc1ccc(-c2nc(CN3CCCCC3c3cccc(F)c3)c(C)o2)o1 (stereo not drawn) | > 100 |  |  |
| O=C(COC(=O)CCSc1ccc(F)cc1)NCc1ccc(F)cc1 | > 100 | > 100 µM (inactive) |  |
| COc1ccc(C(=O)Nc2ccc3nc(C)sc3c2)cc1OC |  | > 100 µM (inactive) |  |
| CC(=O)c1c(C)nn(CC(O)COc2ccc3c(c2)CCC3)c1C (stereo not drawn) |  | > 100 µM (inactive) |  |
| O=C(Nc1cccc(O)c1)c1cccc(S(=O)(=O)Nc2cccc(O)c2)c1 |  | > 100 µM (inactive) |  |
| CCCNC(=O)c1cc(C2CCCN(S(=O)(=O)c3cccc4cccnc34)C2)on1 (stereo not drawn) |  | > 100 µM (inactive) |  |
| O=C(Nc1ccc(C(=O)Nc2ccccc2Cl)cc1)c1cccnc1 |  | > 100 µM (inactive) | 8.17 |
| CC(=O)Oc1ccc(N(C(C)=O)S(=O)(=O)c2ccc(C)cc2)c2ccccc12 | > 100 | > 100 µM (inactive) |  |
| Cc1ccc(CNS(=O)(=O)c2ccc3c(c2)NC(=O)CS3)cc1 |  | > 100 µM (inactive) |  |
| O=C(COn1nnc2ccc(C(F)(F)F)cc21)Nc1c(Cl)cccc1Cl | > 100 | > 100 µM (inactive) |  |
| Cc1ccc(S(=O)(=O)N2CCOCC2)cc1NC(=O)COc1ccc(-c2nnco2)cc1 |  | > 100 µM (inactive) |  |
